The text below walks through data of patent publication US20220031680A1, “Donecopride As Neuroprotective Agent In the Treatment of Neurodegenerative Diseases” (priority 2018, published 2022).

The assay concerns C57Bl6/J mice challenged with an intracerebroventricular injection of Aβ1-42 oligomers (AβO). As to the kind of experiment: Morris water maze (learning and long-term memory) in mice icv injected with AβO. It counts as in vivo, mouse. As for the experimental part:
Briefly, 144 C57Bl6/J male mice (3 months of age) were received and housed (4 to 5 per cage) in quarantine during 7 days, or longer. Test items were dosed per os (through oral gavage) once daily at different concentrations from day −1 to day +17.
From days +3 to days +14, learning capacities and long-term memory were investigated in the MWM assay.
The different experimental groups are defined as follow: • GROUP A (vehicle CTRL): po vehicle AND icv injection of vehicle (n=12) • GROUP B (APO CTRL): po vehicle AND icv injection of AβO (n=12) • GROUP C (positive CTRL): po Donepezil subchronic AND icv injection of AβO (n=12) • GROUP D (Donecopride CTRL): po Donecopride (9 mg/kg) AND icv injection of vehicle (n=12) • GROUP E (Flucopride CTRL): po Flucopride (9 mg/kg) AND icv injection of vehicle (n=12) • GROUP F (Donecopride Treated): po Donecopride (1 mg/kg) AND icv injection of AβO (n=12) • GROUP G (Donecopride Treated): po Donecopride (3 mg/kg) AND icv injection of AβO (n=12) • GROUP H (Donecopride Treated): po Donecopride (9 mg/kg) AND icv injection of AβO (n=12) • GROUP I (Fluocopride Treated): po Flucopride (1 mg/kg) AND icv injection of AβO (n=12) • GROUP J (Flucopride Treated): po Flucopride (3 mg/kg) AND icv injection of AβO (n=12) • GROUP K (Flucopride Treated): po Flucopride (9 mg/kg) AND icv injection of AβO (n=12) • GROUP L (positive CTRL): ip Donepezil acute on test days AND icv injection of AβO (n=12)
For per os dosing, Donecopride and Flucopride were formulated by solubilization in 0.9% NaCl. Compound dosing (total volume of 200 μL) started one day before induction of the disease (through icv injection of AβO) and was done for 19 consecutive days.
Single intra-cerebroventricular injection of 144 mice with vehicle or APO (max. 24 mice per day, all mice randomized): under anesthesia (ip injection of a mixture of ketamine/xylasine at a dose of 110 and 15 mg/kg, respectively) AβO (1 μL), or vehicle (1 μL) were injected into the right lateral ventricle. Injections were made using 10 μL Hamilton micro syringes fitted with a 26-gauge needle. The procedure was terminated by a subcutaneous injection of metacam (analgesia) at a dose of 5 mg/kg. Animals were then placed individually in their home-cage and the cage was placed in a heated cabinet until the animal has fully recovered. Animals were carefully monitored to control recovery after anesthesia.
Preparation of APO: Aβ1-42 was obtained from Bachem (ref H1368) (batch number: 1052301). The preparation of stable Aβ1-42 oligomers was performed as described in Garcia et al. (2010) J. Neurosci. 30:7516-7527. The oligomeric preparation (identified as Batch #2016-14) contained a mixture of stable trimers and tetramers of Aβ1-42, as well as monomeric forms of the peptide. All oligomer preparations used were previously characterized in terms of oligomer composition and in vitro neurotoxicity.
6 independent trials involving each 24 mice (i.e. 2 mice from each experimental group) for a total of 144 mice at day +4.
Detailed protocol: Habituation trials (visible platform)—The Morris water maze (MWM) was performed as described in Garcia et al. (2010) J. Neurosci. 30:7516-7527. The experimental apparatus consists of a circular water tank (diameter=100 cm; height=50 cm) containing water at 21° C. to a depth of 25 cm and rendered opaque to block the view past the water surface by adding an aqueous acrylic emulsion. A platform (diameter=10 cm) is used and placed at the midpoint of a quadrant. The pool is located in a test room, homogeneously illuminated at 100 lux. The swimming path of the animals is recorded using a video tracking system. Mice are brought to the experimental room for at least 30 min prior to testing, to enable acclimation to the experimental room conditions. Navigation to a visible platform is carried out before place-navigation, to evaluate visual and motor abilities of all mice. […]

[1] abbreviates: ip acute on test day, icv AβO (Group L).
Where [2] appears, read: po sub-chronic, icv AβO (Group C).
[3] abbreviates: 3 mg/kg/day po, icv AβO, day 5 of training.
Where [4] appears, read: 9 mg/kg/day po, icv vehicle, day 5 of training.
[5] abbreviates: at all doses (1, 3, 9 mg/kg/day po), icv AβO.

Molecules are shown by their SMILES.

In the case of `COc1cc2c(cc1OC)C(=O)C(CC1CCN(Cc3ccccc3)CC1)C2` (stereo not drawn) [Donepezil, reference compound], the “time spent in target vs opposite quadrant (MWM probe trial)” value (icv AβO) is listed as “failed to improve”. For the same compound, the “mean crossing number (MWM probe trial)” value reads like this: under setting [1], 3.8±0.4; under setting [2], 3.7±0.4. The “mean latency to target (MWM probe trial)” value amounted to 13.3 ± 2.3 s under setting [1] and 14.6 ± 2.7 s under setting [2]. Moreover, the “mean escape latency (MWM learning trials)” value (from here on “mean escape latency”) by setting is: (ip acute on test day, icv AβO (Group L), day 5 of training) 13.4 ± 1.5 s; (po sub-chronic, icv AβO (Group C), after five days of training (day 5)) 14.7 ± 1.9 s.
As to `COc1cc(N)c(Cl)cc1C(=O)CCC1CCN(CC2CCCCC2)CC1` [Donecopride], the “mean latency to target (MWM probe trial)” value came out at 9.3 ± 1.4 s (1 mg/kg/day po, icv AβO) and 7.2 ± 1.5 s (9 mg/kg/day po, icv vehicle). The “mean crossing number (MWM probe trial)” value (3 mg/kg/day po, icv AβO) was determined as 5.1±0.6 and the “mean crossing number (MWM probe trial)” value (9 mg/kg/day po, icv vehicle) came out at 4.6±0.5. Further, the “mean escape latency” value runs as follows: under setting [3], 12.7 ± 1.5 s; under setting [4], 13.0 ± 1.7 s. Further, the “AβO-induced impairment of long-term memory evaluated using the latency to target” value under setting [5] is given as “inhibition”. For the same compound, the “AβO-induced impairment of long-term memory evaluated using the number of crossings” value under setting [5] is recorded as “inhibition”. The “time spent in target vs opposite quadrant (MWM probe trial)” value (icv AβO) was “did not improve”.
As to `COc1cc(N)c(F)cc1C(=O)CCC1CCN(CC2CCCCC2)CC1` [Flucopride], the “mean escape latency” value is, setting by setting: (1 mg/kg/day po, icv AβO, day 5 of training) 13.1 ± 1.1 s; under setting [3], 12.5 ± 1.1 s; (9 mg/kg/day po, icv vehicle, day 4 of training) 14.2 ± 1.9 s; under setting [4], 16.3 ± 2.0 s. Further, the “mean crossing number (MWM probe trial)” value is, setting by setting: (3 mg/kg/day po, icv AβO) 4.1±0.6; (9 mg/kg/day po, icv vehicle) 4.6±0.7. Also, the “improvement of learning capacities (MWM learning trials)” value (9 mg/kg/day po, icv AβO) was “had no effect”. For the same compound, the “mean latency to target (MWM probe trial)” value runs as follows: (9 mg/kg/day po, icv AβO) 10.7 ± 1.9 s; (9 mg/kg/day po, icv vehicle) 12.0 ± 2.1 s. Also, under setting [5], the “AβO-induced impairment of long-term memory evaluated using the number of crossings” value is reported as “inhibition”. The “time spent in target vs opposite quadrant (MWM probe trial)” value (icv AβO) is on record as “did not improve”.
